# Measurements from paper PMC12591170, “Glabridin‐Gold(I) Complex as a Novel Immunomodulatory Agent Targeting TrxR and MAPK Pathways for Synergistic Enhancement of Antitumor Immunity” (Advanced Science, 2025).
# What was measured:
# [1] = tested on: immune cells in Hepa1-6 tumor and spleen tissue; test: In vivo immune cell and marker analysis (flow cytometry, immunofluorescence, immunohistochemistry); parameters: species or system C57BL/6 mice
# Method: All mice were 6–8 weeks old males and procured from Hangzhou Medical College, located in Hangzhou, China. […] 2 × 10^6 Hepa1‐6 cells in 100 µL DMEM were subcutaneously seeded in underarms of C57BL/6 mice. […] Meanwhile, the mice weights and tumor volume were recorded, and the calculation formula of tumor volume was Volume = Width^2 × Length/2. After 13 days, all mice were sacrificed for collection of tumors, hearts, livers, spleens, lungs and kidneys. Collagenase IV (1 mg mL^−1) and DNase I (1 µg mL^−1) were applied to digest a part of the tumor tissue into cell suspension, and lysis buffer was used to remove red blood cells. The prepared cells above were stained with antibodies (anti‐CD3e‐FITC, and anti‐CD8a‐PE; anti‐CD11c‐APC, anti‐CD80‐PE, and anti‐CD86‐FITC; anti‐CD45‐Percp, anti‐CD11b‐APC, and anti‐Ly‐6G/Ly‐6C(Gr‐1)‐FITC; anti‐CD11b‐APC, anti‐CD206‐PE, and CD86‐FITC). CD3^+CD8^+ T cells, CD80^+CD86^+ DCs, CD11b^+Gr‐1^+ MDSCs, CD206^−CD86^+ M1‐type macrophages and CD206^+CD86^− M2‐type macrophages were analyzed by flow cytometry. Then, another part of tumor tissues were fixed with 4% paraformaldehyde, embedded in paraffin, cut into slices and stained with antibodies for immunofluorescence and immunohistochemistry analysis.
# [2] = tested on: HepG2 cells; test: MMP measurement (JC-1); format: cell-based, human; settings: HepG2, 24 h
# Method: 12‐well plate was applied to incubate HepG2 cells (5 × 10^4 cells per wells). After overnight, cells were treated with DMF (0.1%), AF (4 µM) or different concentrations of 6d (2, 4, 8 µM) for 24 h. 2.5 µg mL^−1 JC‐1 probe was added in the wells after removing original liquid. 15 min later, PBS was applied to wash cells for two times. Then, the fluorescence images were captured by the fluorescence microscopy.
# [3] = tested on: HIF-1α; test: Western blot of HIF-1α in HepG2; format: cell-based, human; settings: HepG2, 24 h
# Method: (§1) HepG2 cells were incubated in 6 cm culture dishes and treated with different complexes. The treated cells were lysed with lysis buffer (RIPA:PMSF:phosphatase inhibitor:protease inhibitor = 100:1:1:1). The lysed cells were further broken by sonication, and proteins were isolated by centrifugation. The protein concentrations were detected by BCA assay. 10% SDS PAGE gel was usually applied to separate the different kDa of proteins, and more than 200 kDa of proteins were separated using 8% SDS PAGE gel. After seperation, proteins were transferred onto polyvinylidene difluoride (PVDF) membranes. The target proteins were labeled by various specific primary antibodies at 4 °C overnight. Then, the membranes were treated with anti‐rabbit or anti‐mouse secondary antibody for 2 h. Tris buffered saline with tween 20 (TBST) was applied to wash the membranes after each operation above. The target proteins’ bands were detected by the enhanced chemiluminescence (ECL) procedure.
# [4] = tested on: Hepa1-6 cells; test: MTT antiproliferative assay, Hepa1-6; format: cell-based; settings: Hepa 1-6 cells
# Method: (§2) All cells were incubated at 37 °C by DMEM complete medium (containing 1% penicillin−streptomycin and 12% FBS) in 5% CO2 incubator. 2–5 × 10^3 cells were cultured in 96‐well plates and each well contained 100 µL complete medium. OXA was dissolved in water, and all other complexes were dissolved in DMF. After cells adhered in the wells, different concentrations of complexes were diluted in 100 µL complete medium and added in the wells. The final volume in the each well was 200 µL and the content of DMF was maximum 0.5%. After 72 h incubation, the antiproliferative activity was tested by MTT assay.
# [5] = tested on: 293T cells; test: MTT assay, normal kidney cell line 293T; format: cell-based; settings: 72 h MTT assay, Mean ± SD
# Method: as §2
# [6] = tested on: MAPK pathway (phosphorylated MEK1/2 and ERK1/2); test: Western blot of MAPK pathway in HepG2; format: cell-based, human; settings: HepG2, 24 h
# Method: as §1
# [7] = flow cytometry and immunofluorescence
structure (smiles),measurement,setting,value
CCn1ccn(CCCCCOc2ccc([C@@H]3COc4c(ccc5c4C=CC(C)(C)O5)C3)c(OCCCCCn3ccn(CC)[c]3=[Au][Br])c2)[c]1=[Au][Br] [6d],DC maturation in spleen and tumor tissues,[1]; [7],induced DC maturation
same,macrophage polarization in tumor,[1]; [7],significantly promoted M1‐type macrophage polarization
same,T lymphocyte infiltration in tumor,[1]; flow cytometry and immunohistochemistry,promoted T lymphocyte infiltration
same,Arg-1 expression in tumor tissue,[1]; immunofluorescence,downregulation
same,CRT exposure in tumor tissue,[1]; immunofluorescence,promoted CRT exposure
same,GzmB expression in tumor tissue,"[1]; immunofluorescence, OXA vs model group, 6d vs OXA group",significantly upregulated GzmB expression
same,MDSC infiltration in tumor,"[1]; vs model group, 13 days",reducing the infiltration
same,Treg infiltration in tumor (Foxp3),"[1]; vs model group, 13 days",reducing the infiltration
same,mitochondrial membrane potential (MMP),[2],decreased MMP
same,HIF-1α expression (western blot),[3],significantly inhibited
same,times more toxic than GLA,[4],34 times
same,IC50,[5],5.14 ± 0.3 µM
same,"ERK1/2 phosphorylation (western blot, Figure S49)",[6],downregulated ERK1/2 phosphorylation
same,phosphorylation of MEK1/2 and ERK1/2 (western blot),[6],significantly inhibited
